The values that follow come from ChEMBL document CHEMBL1201862, “PubChem BioAssay data set” (2004).

Structures are written as SMILES.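 Protocol summary: plate cells (96-well), add compound at 5 concentrations, incubate 48 h, interpolate endpoints linearly. GI50 = concentration required for 50% inhibition of growth.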 The source made the active and inactive calls. No stated cut-off is given here; in the data, active = GI50 up to about 1.1 µM and inactive = higher. Some results are limits rather than exact numbers.

Assay in all cases: growth of human tumour cells (NCI), 48 h
For assay [1], the system named is HCT-116.
For assay [2], the system named is SNB-19.
Assay [3] deals with Hs-578T.
For assay [4], the system named is SF-539.
Assay [5] has as its system OVCAR-4.
Assay [6] relates to HT-29.
The subject of assay [7] is A549.
Assay [8] concerns 786-0.
Assay [9] deals with HCT-15.
In assay [10] the test system is CAKI-1.
The subject of assay [11] is IGROV-1.
For assay [12], the system named is Malme-3M.
In assay [13] the test system is HCC 2998.
Assay [14] concerns HOP-62.
Assay [15] concerns NCI-H460.
The test system of assay [16] is UACC-257.
In assay [17] the test system is PC-3.
In assay [18] the test system is OVCAR-5.
Assay [19] deals with M14.
Assay [20] relates to RPMI-8226.

Turning to `Cc1c2c(n3c(nc4ccccc43)c1C#N)N(c1ccc(F)cc1)CC2`, the GI50 in [1] is > 100 µM (inactive); in [2] it was > 100 µM (inactive); in assay [3], 71.1 µM (inactive); in assay [4], > 100 µM (inactive); in [5] it was 41.4 µM (inactive); in [6], > 100 µM (inactive). The GI50 is > 100 µM (inactive) in assay [7]; > 100 µM (inactive) in assay [8]; greater than 100 µM in assay [9]; > 100 µM (inactive) in assay [10]; > 100 µM (inactive) in assay [11]; > 100 µM (inactive) in [12]. In addition, the GI50 in assay [13], in assay [14], in assay [15], in assay [16], in [17] and in [18] was > 100 µM (inactive) in each case.

Turning to `O=C(Nc1sccc1S(=O)(=O)c1ccc(Cl)cc1)c1ccccc1`, the GI50 in assay [1] is > 100 µM (inactive); in assay [2] it was > 100 µM (inactive); in assay [3], > 100 µM (inactive); in assay [4] it was 60.1 µM (inactive); in [19] it was > 100 µM (inactive); in assay [5] it was 45 µM (inactive). The GI50 in [6] was > 100 µM (inactive); in assay [7], > 100 µM (inactive); in assay [8], > 100 µM (inactive); in assay [20] it was > 100 µM (inactive); in [9] it was greater than 100 µM; in [10], > 100 µM (inactive). For the same compound, the GI50 in assay [11] is > 100 µM (inactive); in assay [12], > 100 µM (inactive); in assay [14], 87.9 µM (inactive); in assay [15], > 100 µM (inactive); in assay [16], 85.1 µM (inactive); in [17], > 100 µM (inactive). Moreover, the GI50 in [18] is > 100 µM (inactive).

Turning to `COc1ccc2c(c1)/C(=C(\C(Cl)=C(\Cl)N1CCCCC1)[N+](=O)[O-])N2`, the GI50 in [1] is > 100 µM (inactive); in [2], > 100 µM (inactive); in assay [3], > 100 µM (inactive); in assay [19] it was > 100 µM (inactive); in [5] it was 87.5 µM (inactive); in assay [6] it was > 100 µM (inactive). The GI50 in [7] is > 100 µM (inactive); in assay [8], > 100 µM (inactive); in assay [9], greater than 100 µM; in assay [10] it was > 100 µM (inactive); in [11], 90.6 µM (inactive); in assay [12], > 100 µM (inactive). The GI50 in assay [13], in [14], in assay [15], in assay [16], in assay [17] and in [18] was > 100 µM (inactive) throughout.

For the compound `COc1ccc(/C=C2\N=C(c3ccccc3)OC2=O)cc1OC(C)=O`, the GI50 in assay [1] was 58.9 µM (inactive); in [2], > 100 µM (inactive); in [3], 26.3 µM (inactive); in assay [4], > 100 µM (inactive); in assay [19] it was 99.8 µM (inactive); in [5] it was 63.1 µM (inactive). Moreover, the GI50 in assay [6] is 47.3 µM (inactive); in [7], > 100 µM (inactive); in assay [8], 56 µM (inactive); in [20] it was 32 µM (inactive); in assay [9], 49.4 µM; in [11], 82.8 µM (inactive). The GI50 in [12] was 13.5 µM (inactive); in [13] it was 93.5 µM (inactive); in [14], 94.2 µM (inactive); in assay [15], > 100 µM (inactive); in assay [16], > 100 µM (inactive); in [17] it was 31.1 µM (inactive). Also, the GI50 in assay [18] is > 100 µM (inactive).

With `Cc1cccc(NC(=S)Nc2ccc(Cl)cc2)n1`, the GI50 in assay [1], in assay [2], in [3], in assay [4], in assay [19] and in assay [5] was > 100 µM (inactive) throughout. The GI50 is > 100 µM (inactive) in [6]; > 100 µM (inactive) in assay [8]; > 100 µM (inactive) in assay [20]; greater than 100 µM in assay [9]; > 100 µM (inactive) in [10]; > 100 µM (inactive) in assay [11]. Further, the GI50 in assay [13], in [14], in assay [15], in [16] and in assay [17] was > 100 µM (inactive) throughout.

In the case of `CC(SC(=S)N1CCCC1)C(=O)Nc1nnc(-c2ccc(Cl)cc2)o1` (configuration not stated), the GI50 in assay [1] is 19.5 µM (inactive); in assay [2] it was 35.6 µM (inactive); in [3] it was 44.8 µM (inactive); in assay [4], 85.3 µM (inactive); in [19], 15.5 µM (inactive); in assay [5] it was 35.5 µM (inactive). For the same compound, the GI50 is 21.8 µM (inactive) in assay [6]; 31 µM (inactive) in assay [7]; 14.1 µM (inactive) in assay [8]; 14.6 µM (inactive) in [20]; 17 µM in assay [9]; 32 µM (inactive) in assay [11]. In addition, the GI50 is 23.8 µM (inactive) in [12]; 57.4 µM (inactive) in assay [13]; 34.1 µM (inactive) in [14]; 39.4 µM (inactive) in assay [15]; 40.4 µM (inactive) in [16]; 35.6 µM (inactive) in assay [17]. Besides, the GI50 in assay [18] was 33.2 µM (inactive).

Consider `COc1cc(C2SCC(=O)N2c2cccc(Cl)c2)cc(OC)c1OC` (configuration not stated), for which the GI50 is 58.9 µM (inactive) in [1]; 11.4 µM (inactive) in assay [2]; > 100 µM (inactive) in assay [3]; > 100 µM (inactive) in assay [4]; 84.9 µM (inactive) in assay [19]; 54.6 µM (inactive) in assay [5]. Besides, the GI50 is > 100 µM (inactive) in assay [6]; > 100 µM (inactive) in assay [7]; 51.6 µM (inactive) in assay [8]; 45.7 µM (inactive) in assay [20]; 72.3 µM in [9]; 55.7 µM (inactive) in [10]. Moreover, the GI50 was 65.9 µM (inactive) in assay [11]; > 100 µM (inactive) in assay [13]; > 100 µM (inactive) in [15]; > 100 µM (inactive) in [16]; > 100 µM (inactive) in assay [17]; > 100 µM (inactive) in assay [18].

As for `COC(=O)[C@H](COC(C)(C)C)NC(=O)N[C@H](C)c1ccccc1`, the GI50 in assay [1], in assay [2], in assay [3], in assay [4], in [19] and in [5] was > 100 µM (inactive) throughout. The GI50 in [6] was > 100 µM (inactive); in [7], > 100 µM (inactive); in assay [8], > 100 µM (inactive); in assay [20], > 100 µM (inactive); in [9] it was greater than 100 µM; in [10] it was > 100 µM (inactive). Also, the GI50 in assay [11], in [13], in assay [14], in assay [15], in assay [16] and in [17] was > 100 µM (inactive) each time. Also, the GI50 in [18] is > 100 µM (inactive).

For the compound `Cc1ccc(S(=O)(=O)NCCCSCCO)cc1`, the GI50 in assay [1] is 27.2 µM (inactive); in assay [2] it was 9.04 µM (inactive); in assay [3], 30.5 µM (inactive); in assay [19], 28.6 µM (inactive); in assay [5], 96.8 µM (inactive); in [6], 33.6 µM (inactive). Also, the GI50 in [7] was 10.5 µM (inactive); in assay [9], greater than 100 µM; in assay [13], > 100 µM (inactive); in [15] it was 43.9 µM (inactive); in assay [16], 44.1 µM (inactive); in assay [17] it was 30 µM (inactive).

On to `C=C(Cl)CN1c2ccccc2C=Cc2ccccc21`, for which the GI50 in assay [1] is 5.01 µM (inactive); in assay [2], 22.5 µM (inactive); in assay [3], 53.3 µM (inactive); in [4], 18 µM (inactive); in assay [19], 17 µM (inactive); in assay [5] it was 21.3 µM (inactive). Also, the GI50 in [6] was 9.44 µM (inactive); in assay [7] it was 15.6 µM (inactive); in [8], 14.2 µM (inactive); in assay [9], greater than 100 µM; in assay [10] it was 10 µM (inactive); in assay [11], 16.1 µM (inactive). The GI50 in [12] was 27.5 µM (inactive); in [13], 17.6 µM (inactive); in assay [14], 16.6 µM (inactive); in assay [15], 3.61 µM (inactive); in [16], 16.3 µM (inactive); in assay [17], 9.12 µM (inactive). Also, the GI50 in [18] is 19.9 µM (inactive).

Take `COc1cc2oc(-c3ccc(O)cc3O)c(CC=C(C)C)c(=O)c2c(O)c1/C=C/C(C)C` [ARTOCARPIN]: the GI50 was 2.1 µM (inactive) in assay [1]; 2.72 µM (inactive) in assay [2]; 3.44 µM (inactive) in [3]; 4.91 µM (inactive) in assay [4]; 1.77 µM (inactive) in assay [19]; 2.61 µM (inactive) in assay [5]. The GI50 in assay [6] was 2.51 µM (inactive); in assay [7], 2.75 µM (inactive); in assay [8], 2.14 µM (inactive); in assay [20] it was 2.62 µM (inactive); in assay [9], 2.96 µM; in assay [11], 3.52 µM (inactive). In addition, the GI50 in assay [12] was 6.4 µM (inactive); in [13], 2.46 µM (inactive); in [14], 2.42 µM (inactive); in [15] it was 3.21 µM (inactive); in assay [16], 6.31 µM (inactive); in assay [17], 2.79 µM (inactive). Further, the GI50 in assay [18] is 6.64 µM (inactive).
